Measured values taken from patent EP4806899A1, “FUSED RING DERIVATIVE, PREPARATION METHOD THEREFOR AND USE THEREOF IN MEDICINE” (Shanghai Qilu Pharmaceutical Research and Development …, priority 2023, dated 2025).
“And” between values parts separate entries of the source, which are not always exact repeats. Identical values can stand only once.

Legend:
in vivo = settings: male, Sprague-Dawley, rat, plasma, po, 10 mg/kg
Procedure: • 1) 50 µL of plasma sample was precipitated by adding 200 µL of acetonitrile, vortex mixed, and centrifuged for 15 minutes. • 2) The processed supernatant was diluted with water and analyzed by LC/MS/MS to determine the concentration of the test compound.
Pharmacokinetic parameters were calculated using WinNonlin 8.3. […] Cmax represents the maximum plasma concentration, T1/2 represents the terminal elimination half-life, MRTInf represents the mean residence time, and AUC represents the area under the plasma concentration-time curve.

plasma hormone levels = assay: Pharmacodynamic determination in monkeys: plasma aldosterone and cortisol after ACTH stimulation; assay type: in vivo, cynomolgus monkeys; settings: P.O.
Procedure: Cynomolgus monkeys were used as test animals to evaluate the pharmacodynamics of multiple compounds of the present disclosure on plasma hormone levels following gavage administration (P.O.) at various doses such as 0.1 mpk (and others, e.g., 0.03 mpk, 0.1 mpk, and 0.3 mpk).
Male cynomolgus monkeys, Suzhou Xishan Zhongke Laboratory Animal Co., Ltd. Animal production license number: SCXK (Su) 2023-0001, animal use license number: SYXK (Su) 2020-0017.
Male cynomolgus monkeys were performed gavage administration (P.O.) at doses set as: 0 mpk (vehicle group, i.e., Veh group), 0.03 mpk, 0.1 mpk, and 0.3 mpk. In each group, 15 µg/kg ACTH was injected intramuscularly 1 hour after dosing. Continuous venous blood samples were collected from each group at 1 hour before administration and at multiple time points after administration. Blood samples were collected, and plasma aldosterone and its precursors, as well as plasma corticosterone and its precursors, at multiple time points were analyzed using LC/MS methods.
Venous blood samples were collected at 1-2 hours before gavage administration and at multiple time points after intramuscular injection of ACTH (adrenocorticotropic hormone). The samples were placed in EDTA-K2 tubes, centrifuged at 4 °C, 2600 g for 10 minutes to separate plasma, which was then stored at -80 °C.
• HPLC: Waters ACQUITY UPLC I-Class PLUS; • Mass spectrometry conditions: Triple Quad™ 7500 (Serial No. FA224362212) mass spectrometer; • Chromatographic column: phenomenex kinetex 2.6µm C8 100A 50 × 4.60 mm; • Mobile phase: mobile phase A was 0.5 mM ammonium fluoride solution containing 0.1% formic acid; mobile phase B was MeOH.
The data in Figs. 1, 2, 3, 4, and 5 are analyzed based on PD changes at 30 minutes after ACTH stimulation. The percentage of PD relative to the control group (Veh group) at 30 minutes after ACTH stimulation serves as the main basis for pharmacodynamic evaluation, calculated according to the following formula: [formula] where PD refers to aldosterone or cortisol. Table 8 Pharmacodynamic Evaluation of Example Compound C44 in Monkeys

human CYP11B2 enzyme = target: T1, human CYP11B2 enzyme (Homo sapiens, UniProt P19099); assay: Enzyme inhibition activity assay in G402 cells stably expressing human CYP11B2 (aldosterone production from 11-DOC, LC/MS); assay type: cell-based; settings: 1 µM 11-DOC, 16 hours, aldosterone detected
T1 construct: the ORF of human CYP11B1 or CYP11B2 were transfected into G402 cells; expressed in transfected cells
T1 sequence (P19099 25-503): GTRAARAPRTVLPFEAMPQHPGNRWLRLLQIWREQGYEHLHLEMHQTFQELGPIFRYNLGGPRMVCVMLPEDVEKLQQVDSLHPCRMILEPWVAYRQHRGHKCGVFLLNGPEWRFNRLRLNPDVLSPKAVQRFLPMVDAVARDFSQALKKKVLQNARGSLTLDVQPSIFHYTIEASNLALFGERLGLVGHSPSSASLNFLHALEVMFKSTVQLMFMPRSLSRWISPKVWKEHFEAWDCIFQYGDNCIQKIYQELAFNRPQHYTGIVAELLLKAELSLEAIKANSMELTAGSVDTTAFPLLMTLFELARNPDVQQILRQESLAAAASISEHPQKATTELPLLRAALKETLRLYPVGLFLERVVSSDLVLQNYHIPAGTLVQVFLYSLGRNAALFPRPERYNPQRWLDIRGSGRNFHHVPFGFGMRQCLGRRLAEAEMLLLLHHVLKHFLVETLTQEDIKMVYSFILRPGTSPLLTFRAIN
Text: (§1) G402 cells (ATCC, CRL 1440) are epithelioid cells isolated from the kidney of a patient with renal failure and are a type of leiomyoblastoma. For the screening of highly specific CYP11B2 inhibitors, we specifically used G402 cell lines stably expressing human CYP11B2 enzyme or human CYP11B1 enzyme for experimental development.
(§2) Construction of Stably Transfected Cell Lines: Expression plasmids containing suitable promoters, suitable drug resistance markers, and the ORF of human CYP11B1 or CYP11B2 were transfected into G402 cells using standard techniques. The cells were then screened using the specific puromycin resistance marker. Monoclonal cells stably expressing human CYP11B2 were selected for expansion, and 11-deoxycorticosterone (11-DOC) was used as the specific substrate to evaluate enzyme activity based on aldosterone production. Monoclonal cells stably expressing human CYP11B1 were selected for expansion, and 11-deoxycortisol (11-DC) was used as the specific substrate, with cortisol production as the detection target for specific enzyme activity evaluation. The G402 cell lines stably expressing CYP11B1/CYP11B2 were cultured at 37 °C, 5% CO2, 95% air in complete medium (McCoy's 5A + 10% FBS + 1% PS + 0.5 µg/mL puromycin).
(§3) Enzyme Inhibition Activity Assay: CYP11B1 G402/CYP11B2 G402 cells were spread out flatly in cell culture plates. After 24 hours, the medium was changed to an enzyme testing system (DMEM/F12 + 2.5% charcoal-stripped FCS). Small molecule inhibitors at various concentrations were added. After 1 hour, appropriate concentrations of specific substrates (1 µM 11-DOC / 1 µM 11-DC) were added and co-incubated with the cells for 16 hours. Cells were then collected, and specific products were detected using LC/MS methods with an AB SCIEX TRIPLE QUAD 5500+, CTO-40S instrument (CYP11B2 enzyme detecting aldosterone; CYP11B1 enzyme detecting cortisol).
(§4) The IC50 values of the compounds were determined based on the G402 testing system. The dose-dependent inhibition of enzyme activity was calculated by plotting the added inhibitor concentration (x-axis) against the percentage of product inhibitory activity relative to the control group (y-axis) based on product formation at various compound concentrations. The following data were then fitted using the least squares method with XLfit 5.5.0 for a four-parameter logistic curve fit: [formula] • Y-axis: Percentage of product inhibitory activity relative to the control group; • logIC50: IC50 was determined using XLFit.
(§5) The maximum enzyme activity corresponds to the amount of control product steroid/aldosterone in the absence of inhibitor, set as 100%. The minimum enzyme activity corresponds to the amount of reference control product steroid/aldosterone in the presence of inhibitor. Table 3 Inhibitory Activity of the Compounds of the Present Disclosure on CYP11B2 and CYP11B1

human CYP11B1 enzyme = target: T2, human CYP11B1 enzyme (Homo sapiens, UniProt P15538); assay: Enzyme inhibition activity assay in G402 cells stably expressing human CYP11B1 (cortisol production from 11-DC, LC/MS); assay type: cell-based; settings: 1 µM 11-DC, 16 hours, cortisol detected
T2 construct: the ORF of human CYP11B1 or CYP11B2 were transfected into G402 cells; expressed in transfected cells
T2 sequence (P15538 25-503): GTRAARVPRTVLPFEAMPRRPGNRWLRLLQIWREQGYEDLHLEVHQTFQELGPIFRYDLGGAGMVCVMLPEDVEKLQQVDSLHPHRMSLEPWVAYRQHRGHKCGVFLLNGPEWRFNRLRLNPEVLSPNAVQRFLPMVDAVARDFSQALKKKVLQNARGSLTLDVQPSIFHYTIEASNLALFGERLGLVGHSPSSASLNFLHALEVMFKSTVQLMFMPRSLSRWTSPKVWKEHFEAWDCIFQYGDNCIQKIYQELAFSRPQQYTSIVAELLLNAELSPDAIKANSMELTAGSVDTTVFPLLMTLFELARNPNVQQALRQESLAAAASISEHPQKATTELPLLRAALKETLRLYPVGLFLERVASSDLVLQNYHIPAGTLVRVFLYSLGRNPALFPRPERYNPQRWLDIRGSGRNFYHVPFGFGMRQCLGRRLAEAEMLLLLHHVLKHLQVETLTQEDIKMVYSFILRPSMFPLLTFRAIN
Text: as §1, §2, §3, §4, §5

[1] = Pharmacokinetic determination in mice after gavage administration (P.O.); assay type: in vivo; settings: male, CD-1, mouse, po, 10 mg/kg, plasma; for AUC(0-t): read-out: AUC0-24
Procedure: Mice and rats were used as test animals to study the pharmacokinetic behavior of the compounds of the present disclosure in plasma following gavage administration (P.O.). Plasma samples were collected at specific time points, compound concentrations in plasma were detected by LC-MS/MS, and pharmacokinetic parameters were calculated to evaluate the pharmacokinetics.
• Mice, CD-1, male, Zhejiang Vital River Laboratory Animal Technology Co., Ltd. • Rats, Sprague-Dawley, male, Zhejiang Vital River Laboratory Animal Technology Co., Ltd., Shanghai Jihui Experimental Animal Breeding Co., Ltd.
After administration to mice and rats, venous blood samples of 0.03 mL and 0.2 mL, respectively, were collected at 0.0833 (IV), 0.25, 0.5, 1, 2, 4, 8, and 24 hours and placed in EDTA-K2 test tubes. Plasma was separated by centrifugation at 4 °C, 4000 g for 5 minutes and stored at -80 °C.
• 1) 10 µL of plasma sample was precipitated by adding 200 µL of acetonitrile, vortex mixed, and centrifuged for 15 minutes. • 2) The processed supernatant was diluted with water and analyzed by LC/MS/MS to determine the concentration of the test compound.
Pharmacokinetic parameters were calculated using WinNonlin 8.3. The pharmacokinetic parameters for mice P.O. are shown in Table 4, and for rats P.O. in Table 5. Cmax represents the maximum plasma concentration, T1/2 represents the terminal elimination half-life, MRTInf represents the mean residence time, and AUC represents the area under the plasma concentration-time curve. Table 4 Pharmacokinetic Parameters of the Compounds of the Present Disclosure in Mice

[2] = 0.03 mpk, 30min after ACTH stimulation, plasma
[3] = 0.1 mpk, 30min after ACTH stimulation, plasma
[4] = 0.3 mpk, 30min after ACTH stimulation, plasma

| AUC(0-t) (in vivo) [µM·h] | Cmax (in vivo) [µM] | MRT inf (in vivo) [h] | half-life (in vivo) [h] | IC50 (human CYP11B2 enzyme) | IC50 (human CYP11B1 enzyme) | Cmax [1] [µM] | MRT inf [1] [h] | half-life [1] [h] | AUC(0-t) [1] [µM·h] | SMILES | Aldosterone (plasma hormone levels; 0.03 mpk, 0h, plasma) [ng/mL] | Cortisol (plasma hormone levels; 0.03 mpk, 0h, plasma) [ng/mL] | Aldosterone (plasma hormone levels; [2]) [ng/mL] | Cortisol (plasma hormone levels; [2]) [ng/mL] | Aldosterone (plasma hormone levels; 0.1 mpk, 0h, plasma) [ng/mL] | Cortisol (plasma hormone levels; 0.1 mpk, 0h, plasma) [ng/mL] | Aldosterone (plasma hormone levels; [3]) [ng/mL] | Cortisol (plasma hormone levels; [3]) [ng/mL] | Aldosterone (plasma hormone levels; 0.3 mpk, 0h, plasma) [ng/mL] | Aldosterone (plasma hormone levels; [4]) [ng/mL] | other results |
| --- | --- | --- | --- | --- | --- | --- | --- | --- | --- | --- | --- | --- | --- | --- | --- | --- | --- | --- | --- | --- | --- |
| 522 | 52.1 | 8.19 | 5.91 | 8.2 nM and 13.8 nM | 3380 nM and 18800 nM | – | – | – | – | CCC(=O)N[C@@H]1CCOc2c(-c3ccc4c(ccc(=O)n4C)c3)cncc21 [Compound A09] | 0.20 | 214.0 | 0.34 | 285.3 | 0.24 | 256.7 | 012 | 345.0 | 0.08 | 0.07 | Cortisol (plasma hormone levels; 0.3 mpk, 0h, plasma): 286.7 ng/mL; Cortisol (plasma hormone levels; [4]): 388.3 ng/mL |
| – | – | – | – | 13.2 nM | 1150 nM | 30.2 | 4.36 | 2.54 | 223 | CCC(=O)N[C@@H]1CCCc2c(-c3ccc4c(c3)COC(=O)N4C)cncc21 [Compound C07] | – | – | – | – | – | – | – | – | – | – | – |
| – | – | – | – | 11.1 nM | 4900 nM | 25 | 5.07 | 2.83 | 209 | CCC(=O)N[C@@H]1CCCc2c(-c3cc(F)c4c(ccc(=O)n4C)c3)cncc21 [Compound C41] | – | – | – | – | – | – | – | – | – | – | – |
| 345 | 47.9 | 6.24 | 4.77 | 16.7 nM | 7220 nM | – | – | – | – | CCC(=O)N[C@@H]1CCCc2c(-c3cc(C)c4c(ccc(=O)n4C)c3)cncc21 [Compound C43] | 0.16 | – | 0.26 | – | 0.16 | – | 0.15 | – | 0.20 | 0.14 | Cortisol (plasma hormone levels; 0.03 mpk, 0h, plasma (Table 11)): 268.3 ng/mL; Cortisol (plasma hormone levels; 0.03 mpk, 30min after ACTH stimulation, plasma (Table 11)): 358.7 ng/mL; Cortisol (plasma hormone levels; 0.1 mpk, 0h, plasma (Table 11)): 282.0 ng/mL; Cortisol (plasma hormone levels; 0.1 mpk, 30min after ACTH stimulation, plasma (Table 11)): 386.0 ng/mL; Cortisol (plasma hormone levels; 0.3 mpk, 0h, plasma (Table 11)): 276.0 ng/mL; Cortisol (plasma hormone levels; 0.3 mpk, 30min after ACTH stimulation, plasma (Table 11)): 346.7 ng/mL |
| – | – | – | – | 187 nM | – | 53.1 | 4.78 | 2.28 | 421 | CCC(=O)N[C@@H]1CCCc2c(-c3cc(F)c4c(c3)COC(=O)N4C)cncc21 [Compound C44] | 0.07 | 279.5 | 0.28 | 384.0 | 0.24 | 455.0 | 0.20 | 538.5 | 0.07 | 0.07 | Cortisol (plasma hormone levels; 0.3 mpk, 0h, plasma): 265.5 ng/mL; Cortisol (plasma hormone levels; [4]): 396.0 ng/mL |
